Test results reported in patent US11684614B2, “Formulations of hydroxypyridonate actinide/lanthanide decorporation agents” (priority 2017, dated 2023).
“And” between values parts separate entries of the source, which are not always exact repeats. Equal entries are not always repeated.

Assay: Repeated-treatment efficacy for removing an intravenous dose of 238Pu (excretion, tissue retention, clinical observations), female and male arms
Assay type: in vivo, Swiss-Webster mice
Details: for tissue content of 238Pu compared to saline control group: all analyzed tissues, all dosing regimens; for % Recovered Dose - Feces per Day: group H
Experimental: The objective of this study was to characterize the efficacy of 3,4,3-L1(1,2-HOPO) at enhancing elimination from an internal plutonium burden in female and male Swiss-Webster mice administered a soluble citrate complex of ^238Pu and treated multiple times, starting at 24 hours after the exposure. Efficacy was evaluated by comparing the tissue contents, urinary and fecal excretions of ^238Pu in treated animals versus untreated animals.
The medical countermeasure 3,4,3-L1(1,2-HOPO) was administered parenterally (ip) or orally (po) via consecutive injections or gavages (six daily or twelve twice daily) starting at 24 hours post contamination at the following four selected doses: 30 μmol/kg ip, 150 μmol/kg po, 300 μmol/kg po, and 600 μmol/kg po (equivalent to respective approximate human doses range of […], using the accepted conversion system of mouse doses into human equivalent doses—HED—based on body surface area). Oral doses also included the permeability enhancer selected during formulation development work.
• Challenge isotope: ^238Pu • Challenge dose: 25 nCi (i.e., approximately 0.8 μCi/kg) • Route of contamination: Intravenous (iv) tail-vein • Route of treatment: Intraperitoneal Injection (ip) or Oral (po) • Frequency of treatment: Multiple (once- or twice-daily for 6 days) doses, starting 24 hr postcontamination • Treatment dose calculation: Dose calculations (mg/kg or μmol/kg) for the decorporation agent were based on the individual body weight measured after contamination. • Study Duration: 11 days, in-life
c. […] Test article and control dose formulations were prepared within 1 day of dose administration, by weighing out the appropriate amount of test article, dispersing in vehicle. For ip solutions, the test article was used alone, while for oral suspensions, a mixture of test article and excipient (90:10, w:w) was used. The pH was adjusted to 7.0-7.4 for ip administration and 5.0-5.5 for oral administration with sterile NaOH. Dose formulations were prepared at room temperature and filter-sterilized. • Storage: 2-8° C.; refrigerated; protected from light. • Characterization: The concentration of each test article formulation was verified by high-performance liquid chromatography-mass spectrometry. • Test Article Handling: Test, reference, and control article formulations were handled with the use of eye protection, gloves, and a protective laboratory coat. • Correct Dose Assurance: The test article was weighed with calibrated balances. The administration of each dose formulation was properly documented, and the amount administered to each animal recorded.
e. Experimental Procedures (In-Life Evaluations and Euthanasia) • Contamination: Single administration by intravenous (iv) tail-vein injection (0.2 mL injection volume) under isoflurane anesthesia. Three standard 0.2 mL injections were performed into polyethylene bottles and pre-loaded with aliquots of concentrated nitric acid on each injection day. Six female and six male mice were culled for necropsy 1 hr post-contamination and were used as standards. A11 standards were processed and counted together with the final samples to allow verification of the contamination dose. • Dose Administration: Single administration by intraperitoneal injection (ip) or oral gavage (po) under isoflurane anesthesia. • Mortality/Morbidity: Assessed at least once daily. • Clinical Observations: Recorded once daily (4 hr post-dose on day of treatment), or more often as clinical signs warranted. […]

[1] = female mice, 30 μmol/kg, IP, 11-day necropsy
[2] = female mice, 30 μmol/kg, IP, 11-day necropsy, over untreated control group
[3] = female mice, 30 μmol/kg, IP, 11-day necropsy, vs untreated control group
[4] = male animals, Day-11 necropsy, animal group H
[5] = male arm table, Day 11 necropsy, animal group H
[6] = male mice, 30 μmol/kg, IP, 11-day necropsy
[7] = male mice, 30 μmol/kg, IP, 11-day necropsy, over untreated control group
[8] = male mice, 30 μmol/kg, IP, 11-day necropsy, vs untreated control group

With O=C(O)CN(CCN(CC(=O)O)CC(=O)O)CCN(CC(=O)O)CC(=O)O [DTPA, diethylenetriaminepentaacetic acid, reference compound] the 238Pu excretion path (female and male mice) was “through urine”, the “^238Pu excretion, Total Excretion, Avg” value [1] was 72.13 percent recovered dose and the “^238Pu excretion, Total Feces, Avg” value [1] was 30.20 percent recovered dose. The “^238Pu excretion, Total Urine, Avg” value [1] was 41.93 percent recovered dose, the “^238Pu retention, GI Tract, Avg” value [1] was 0.54 percent recovered dose and the “^238Pu retention, Kidney, Avg” value [1] was 0.13 percent recovered dose. The “^238Pu retention, Liver, Avg” value [1] was 4.14 percent recovered dose, the “^238Pu retention, Soft Tissue, Avg” value [1] was 1.66 percent recovered dose and the “^238Pu retention, Total Body, Avg” value [1] was 27.87 percent recovered dose. For the same compound, the “^238Pu retention, Total Bone, Avg” value [1] was 21.40 percent recovered dose, the “^238Pu percent increase in excretion, Total Excretion” value [2] was 143.34% and the “^238Pu percent increase in excretion, Total Feces” value [2] was 106.02%. The “^238Pu percent increase in excretion, Total Urine” value [2] was 192.03%, the “^238Pu percent tissue reduction, GI Tract” value [3] was 59.99% and the “^238Pu percent tissue reduction, Kidney” value [3] was 51.24%. For the same compound, the “^238Pu percent tissue reduction, Liver” value [3] was 65.62%, the “^238Pu percent tissue reduction, Soft Tissue” value [3] was 41.56% and the “^238Pu percent tissue reduction, Total Body” value [3] was 43.90%. For the same compound, the “^238Pu percent tissue reduction, Total Bone” value [3] was 35.51%, the “tissue content of 238Pu compared to saline control group” value (female) was “large reductions” and the “% Recovered Dose Combined Body” value [4] was 31.58% and 24.29% and 33.79% and 30.93% and 32.00% and 29.03% and 23.14% and 27.41%. The “% Recovered Dose Combined Excreta” value [4] was 68.42% and 74.71% and 66.21% and 69.07% and 68.00% and 70.97% and 76.86% and 72.59%, the “% Recovered Dose GI Tract” value [4] was 1.75% and 0.46% and 0.91% and 0.70% and 0.71% and 0.57% and 0.52% and 0.47% and the “% Recovered Dose Kidney” value [4] was 0.14% and 0.28% and 0.20% and 0.21% and 0.11% and 0.15% and 0.17%. For the same compound, the “% Recovered Dose Liver” value [4] was 5.98% and 3.55% and 5.50% and 4.81% and 4.85% and 4.26% and 4.33% and 4.96%, the “% Recovered Dose Soft Tissue” value [4] was 2.40% and 1.47% and 2.34% and 2.95% and 2.10% and 1.91% and 1.81% and 1.44% and the “% Recovered Dose Total Bone” value [4] was 21.31% and 18.54% and 24.85% and 22.27% and 24.22% and 22.15% and 16.34% and 20.37%. For the same compound, the “% Recovered Dose Urine per Day, Day 2” value [5] was 7.92% and 8.51% and 7.65% and 2.69% and 6.20% and 7.54% and 5.46% and 8.58%, the “% Recovered Dose Urine per Day, Day 3” value [5] was 3.90% and 4.79% and 4.05% and 2.57% and 3.66% and 4.86% and 4.80% and 5.85% and the “% Recovered Dose Urine per Day, Day 4” value [5] was 3.05% and 3.34% and 2.72% and 0.84% and 2.10% and 3.61% and 2.55% and 2.58%. For the same compound, the “% Recovered Dose Urine per Day, Day 5” value [5] was 1.94% and 1.91% and 2.47% and 1.16% and 1.62% and 3.01% and 2.10% and 2.23%, the “% Recovered Dose Urine per Day, Day 6” value [5] was 1.36% and 1.21% and 1.73% and 0.80% and 1.18% and 1.69% and 1.57% and 1.37% and the “% Recovered Dose Urine per Day, Day 7” value [5] was 1.74% and 1.68% and 1.50% and 1.67% and 1.63% and 1.84% and 1.87% and 1.77%. The “% Recovered Dose Urine per Day, Day 8” value [5] was 0.96% and 0.76% and 0.90% and 0.53% and 0.64% and 0.85% and 1.18% and 0.65%, the “% Recovered Dose Urine per Day, Day 9” value [5] was 0.92% and 0.50% and 1.01% and 0.62% and 0.49% and 0.72% and 0.87% and 0.69% and the “% Recovered Dose Urine per Day, Day 10” value [5] was 0.35% and 0.32% and 0.27% and 0.21% and 0.49% and 0.38%. The “% Recovered Dose Urine per Day, Day 11” value [5] was 0.20% and 0.84% and 0.25% and 0.28% and 0.33% and 0.44% and 0.55% and 0.31%, the “% Recovered Dose - Feces per Day” value (male mice, feces day 2, Day 11 necropsy) was 2.78% and 4.90% and 1.40% and 7.06% and 3.40% and 6.60% and 7.14% and 5.64% and the “% Recovered Dose - Feces per Day” value (male mice, feces day 3, Day 11 necropsy) was 3.63% and 6.69% and 4.80% and 10.31% and 4.70% and 6.91% and 8.25% and 7.45%. For the same compound, the “% Recovered Dose - Feces per Day” value (male mice, feces day 4, Day 11 necropsy) was 3.78% and 4.47% and 3.18% and 7.97% and 3.38% and 4.66% and 5.75% and 4.65%, the “% Recovered Dose - Feces per Day” value (male mice, feces day 5, Day 11 necropsy) was 1.51% and 1.78% and 1.71% and 3.62% and 1.81% and 1.45% and 2.38% and 1.92% and the “% Recovered Dose - Feces per Day” value (male mice, feces day 6, Day 11 necropsy) was 1.64% and 2.00% and 2.45% and 2.79% and 1.57% and 1.96% and 1.83% and 1.74%. The “% Recovered Dose - Feces per Day” value (male mice, feces day 7, Day 11 necropsy) was 1.05% and 1.04% and 1.03% and 2.05% and 1.28% and 0.78% and 1.36% and 3.81%, the “% Recovered Dose - Feces per Day” value (male mice, feces day 8, Day 11 necropsy) was 0.81% and 0.75% and 1.29% and 1.70% and 0.85% and 0.78% and 1.19% and 1.40% and the “% Recovered Dose - Feces per Day” value (male mice, feces day 9, Day 11 necropsy) was 0.43% and 0.51% and 0.65% and 1.29% and 0.58% and 0.39% and 0.64% and 0.87%. For the same compound, the “% Recovered Dose - Feces per Day” value (male mice, feces day 10, Day 11 necropsy) was 0.38% and 0.40% and 0.33% and 0.79% and 0.42% and 0.30% and 0.52% and 0.68%, the “% Recovered Dose - Feces per Day” value (male mice, feces day 11, Day 11 necropsy) was 0.37% and 0.35% and 0.40% and 0.78% and 0.36% and 0.30% and 0.52% and 0.77% and the “^238Pu excretion, Total Excretion, Avg” value [6] was 70.98 percent recovered dose. For the same compound, the “^238Pu excretion, Total Feces, Avg” value [6] was 35.89 percent recovered dose, the “^238Pu excretion, Total Urine, Avg” value [6] was 35.09 percent recovered dose and the “^238Pu retention, GI Tract, Avg” value [6] was 0.76 percent recovered dose. The “^238Pu retention, Kidney, Avg” value [6] was 0.17 percent recovered dose, the “^238Pu retention, Liver, Avg” value [6] was 4.78 percent recovered dose and the “^238Pu retention, Soft Tissue, Avg” value [6] was 2.05 percent recovered dose. The “^238Pu retention, Total Body, Avg” value [6] was 29.02 percent recovered dose, the “^238Pu retention, Total Bone, Avg” value [6] was 21.26 percent recovered dose and the “238Pu percent increase in excretion, Total Excretion” value [7] was 149.50%. For the same compound, the “238Pu percent increase in excretion, Total Feces” value [7] was 140.57%, the “238Pu percent increase in excretion, Total Urine” value [7] was 159.88% and the “^238Pu percent tissue reduction, GI Trace” value [8] was 61.32%. The “^238Pu percent tissue reduction, Kidney” value [8] was 47.89%, the “^238Pu percent tissue reduction, Liver” value [8] was 71.51% and the “^238Pu percent tissue reduction, Soft Tissue” value [8] was 42.09%. The “^238Pu percent tissue reduction, Total Body” value [8] was 44.74%, the “^238Pu percent tissue reduction, Total Bone” value [8] was 28.92% and the “tissue content of 238Pu compared to saline control group” value (male) was “large reductions”.
